Source: US11076600B2, “Mixtures of cis-jasmone and bacillus amyloliquefaciens” (BASF SE, priority 2015, dated 2021)

How the values were obtained:
Type in all cases: in vivo
[1] = system: root knot nematodes (Meloidogyne incognita/acrita); assay: Field trial: yield improvement against root knot nematode in cotton after seed treatment; conditions: cotton (PhytoGen PHY 499 WRF) seed treatment; per 100 kg of seed: MBI600 1*10^11 CFU, cis-jasmone 0.2 g ai; harvest yield (pounds/acre) converted into % of untreated control; 4 replicates
Excerpt: (§1) To establish, whether a synergistic effect is present, the expected efficacy has to be calculated and compared to the observed efficacy of the mixture according to the invention.
(§2) Synergism can be described as an interaction where the combined effect of two or more compounds is greater than the sum of the individual effects of each of the compounds. The presence of a synergistic effect in terms of percent control, between two mixing partners (X and Y) can be calculated using the Colby equation (Colby, S. R., 1967, Calculating Synergistic and Antagonistic Responses in Herbicide Combinations, Weeds, 15, 20-22):
(§3) X=Observed efficacy (in % of Untreated Control) of compound 1
(§4) Y=Observed efficacy (in % of Untreated Control) of compound 2
(§5) E=Calculated (i.e. expected) efficacy (in % of Untreated Control)
(§6) When the observed efficacy (%) is greater than the calculated efficacy (E) according to Colby (%), then the combined effect is synergistic.
For evaluating control of root knot nematodes (Meloidogyne incognita/acrita) in cotton, cotton seeds (variety PhytoGen PHY 499 WRF) were treated with cis-jasmone, MBI600 (Bacillus amyloliquefaciens ssp. plantarum MBI600), or a mixture thereof.
(§7) Seeds were placed in a plastic cup and the compounds, or the mixture thereof, was dosed on the seeds with an application rate of 0.2 g of cis-jasmone per 100 kg of seeds, and 1*10^11 CFU of MBI600 per 100 kg of seeds. […]

[2] = system: soybean cyst nematodes (Heterodera glycines); assay: Field trial: yield improvement against soybean cyst nematode in soybean after seed treatment; conditions: soybean (Dyna-Gro 39RY43) seed treatment; per 100 kg of seed: MBI600 1*10^11 CFU, cis-jasmone 0.2 g ai; harvest yield (bushels/acre) converted into % of untreated control; 4 replicates
Excerpt: as §1, §2, §3, §4, §5, §6
For evaluating control of soybean cyst nematodes (Heterodera glycines) in soybean, soybean seeds (variety Dyna-Gro 39RY43) were treated with cis-jasmone, MB1600 (Bacillus amyloliquefaciens ssp. plantarum MB1600), or a mixture thereof.
as §7

[3] = system: root knot nematodes (Meloidogyne incognita/acrita); assay: Field trial: yield improvement against root knot nematode in corn after seed treatment; conditions: corn (NG6247MQKZ, NF5334MQKZ, NG4549MQKZ) seed treatment; per 100 kg of seeds: MBI600 1*10^11 CFU, cis-jasmone 0.2 g ai; harvest yield (bushels/acre) converted into % of untreated control; 4-6 replicates
Excerpt: as §1, §2, §3, §4, §5, §6
For evaluating control of root knot nematodes (Meloidogyne incognita/acrita) in corn, corn seeds (varieties NG6247MQKZ, NF5334MQKZ and NG4549MQKZ, respectively) were treated with cis-jasmone, MBI600 (Bacillus amyloliquefaciens ssp. plantarum MBI600), or a mixture thereof. […]

CC/C=C\CC1=C(C)CCC1=O [Cis-jasmone]
Observed efficacy (%) [1]: 47.2% | Observed efficacy (%) [2]: 9% | Observed efficacy (%) [3]: 9.2%
